Target: human 11β-HSD1 (Homo sapiens, UniProt P28845)
Assay: biochemical
Settings: for inhibition at 0.1 µM: read-out: Biological Test Example 2 Average % inhibition at 100 nm, at 100 nm; for IC50: Biological Test Example 2 IC50 Range, microsomes from CHO cells overexpressing human 11β-HSD1, SPA
Experimental: All reactions are carried out at room temperature in 96 well clear flexible PET Microbeta plates (PerkinElmer). […] The reaction is stopped by adding 50 μl of the SPA beads suspension containing 10 μM 18β-glycyrrhetinic acid, 5 mg/ml protein A coated YSi SPA beads (GE Healthcare) and 3.3 μg/ml of anti-cortisol antibody (East Coast Biologics) in Superblock buffer (Bio-Rad). The plates are then shaken for 120 minutes at room temperature, and the SPA signal corresponding to [^3H]cortisol is measured on a Microbeta plate reader.

Sequence of human 11β-HSD1 (P28845 whole entry): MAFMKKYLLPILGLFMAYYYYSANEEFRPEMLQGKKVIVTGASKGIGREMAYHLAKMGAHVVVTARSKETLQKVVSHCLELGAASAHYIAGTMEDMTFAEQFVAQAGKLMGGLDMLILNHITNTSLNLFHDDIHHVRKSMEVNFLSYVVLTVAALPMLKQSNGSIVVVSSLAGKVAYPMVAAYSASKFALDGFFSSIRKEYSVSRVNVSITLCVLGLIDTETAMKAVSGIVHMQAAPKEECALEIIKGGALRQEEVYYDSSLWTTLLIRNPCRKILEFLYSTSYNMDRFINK

| inhibition at 0.1 µM (1.5 h) [%] | IC50 [nM] | inhibition at 0.111 µM (1.5 h, read-out: Biological Test Example 2 Average % inhibition at 111 nm, at 111 nm) [%] | SMILES |
| --- | --- | --- | --- |
| 101 | < 100 |  | O=C(O[C@H]1C2CC3CC1C[C@](O)(C3)C2)N1CC[C@@H](Nc2cnc3cc(Cl)ccc3n2)C1 [Example 96, (R)-(trans-1-hydroxy-4-adamantyl) 3-(6-chloroquinoxalin-2-ylamino)pyrrolidine-1-carboxylate] |
| 21.8 | > 100 |  | CN(C(=O)c1ccc(N[C@@H]2CCN(C(=O)O[C@H]3C4CC5CC3C[C@](O)(C5)C4)C2)nc1)C(C)(C)C [Example 99, (trans-1-hydroxy-4-adamantyl) 3-(5-(tert-butyl(methyl)carbamoyl)pyridin-2-ylamino)pyrrolidine-1-carboxylate] |
| 46.8 | < 100 |  | CN(C(=O)c1cccnc1N[C@@H]1CCN(C(=O)O[C@H]2C3CC4CC2C[C@](O)(C4)C3)C1)C(C)(C)C [Example 100, (trans-1-hydroxy-4-adamantyl) 3-(3-(tert-butyl(methyl)carbamoyl)pyridin-2-ylamino)pyrrolidine-1-carboxylate] |
| 78.7 | < 100 |  | CC(C)(C)NC(=O)c1cc(Cl)cnc1N[C@@H]1CCN(C(=O)O[C@H]2C3CC4CC2C[C@](O)(C4)C3)C1 [Example 102, (R)-(trans-1-hydroxy-4-adamantyl) 3-(3-(tert-butylcarbamoyl)-5-chloropyridin-2-ylamino)pyrrolidine-1-carboxylate] |
| 78.6 | < 100 |  | Cc1cc(N[C@@H]2CCN(C(=O)O[C@H]3C4CC5CC3C[C@](C(N)=O)(C5)C4)C2)nc(C)n1 [Example 33, (R)-(trans-1-carbamoyl-4-adamantyl) 3-(2,6-dimethylpyrimidin-4-ylamino)pyrrolidine-1-carboxylate] |
| 101 | < 100 |  | N#Cc1cc(Cl)cnc1N[C@@H]1CCN(C(=O)O[C@H]2C3CC4CC2C[C@](O)(C4)C3)C1 [Example 86, (R)-(trans-1-hydroxy-4-adamantyl) 3-(5-chloro-3-cyanopyridin-2-ylamino)pyrrolidine-1-carboxylate] |
| 100 | < 100 |  | N#Cc1cnc(N[C@@H]2CCN(C(=O)O[C@H]3C4CC5CC3C[C@](O)(C5)C4)C2)c(Cl)c1 [Example 87, (R)-(trans-1-hydroxy-4-adamantyl) 3-(3-chloro-5-cyanopyridin-2-ylamino)pyrrolidine-1-carboxylate] |
| 90.6 | < 100 |  | O=C(O[C@H]1C2CC3CC1C[C@](O)(C3)C2)N1CC[C@@H](Nc2ccc3cc(Cl)ccc3n2)C1 [Example 95, (R)-(trans-1-hydroxy-4-adamantyl) 3-(6-chloroquinolin-2-ylamino)pyrrolidine-1-carboxylate] |
|  | < 100 | 94.3 | CC(C)(C)OC(=O)N1CCCC12CCN(C(=O)NC1C3CC4CC(C3)CC1C4)C2 (stereo not drawn) [Example 58, tert-butyl 7-(2-adamantylcarbamoyl)-1,7-diazaspiro[4.4]nonane-1-carboxylate] |
| 91.1 | < 100 |  | O=C(O[C@H]1C2CC3CC1C[C@](O)(C3)C2)N1CC[C@@H](Nc2nc3ccc(Cl)cc3s2)C1 [Example 97, (R)-(trans-1-hydroxy-4-adamantyl) 3-(6-chlorobenzo[d]thiazol-2-ylamino)pyrrolidine-1-carboxylate] |
| 64 | < 100 |  | O=C(O[C@H]1C2CC3CC1C[C@](O)(C3)C2)N1CC[C@@H](Nc2ncnc3ccccc23)C1 [Example 85, (R)-(trans-1-hydroxy-4-adamantyl) 3-(quinazolin-4-ylamino)pyrrolidine-1-carboxylate] |

| SMILES | inhibition at 0.1 µM (1.5 h) [%] | IC50 [nM] | inhibition at 0.111 µM (1.5 h, read-out: Biological Test Example 2 Average % inhibition at 111 nm, at 111 nm) [%] |
| --- | --- | --- | --- |
| CS(=O)(=O)N1C2CCC1CC(NC(=O)N1CC[C@@H](Nc3ccc(C#N)cn3)C1)C2 (stereo partly drawn) [Example 106, (3R)-3-(5-cyanopyridin-2-ylamino)-N-(8-(methylsulfonyl)-8-azabicyclo[3.2.1]octan-3-yl)pyrrolidine-1-carboxamide] | 3.9 | > 100 |  |
